{
  "source": "patent US5750332A",
  "about": "“Peptomers with enhanced immunogenicity” (priority 1995, dated 1998)",
  "key": {"[1]": {"experiment": "Circular dichroism spectroscopy, degree of α-helicity", "format": "physicochemical", "conditions": "for helix content: circular dichroism, analysis according to Provencher et al.", "text": "Circular dichroism spectroscopy was used to determine the degree of α-helicity of the peptomer and the peptide from which it was derived. […] In this case, the peptide contains 8±7% helix, while the peptomer has 31±1%. This establishes that by polymerizing the peptide, the peptomer achieves a conformation that is not favored for the free peptide monomer.\nUsing circular dichroism spectroscopy as described in Example 5, above, the degree of α-helicity of the peptide (419-436) with and without detergent was determined."}, "[2]": {"test_system": "antisera from HIV infected individuals", "experiment": "ELISA of serum samples on plates coated with peptide or peptomer", "format": "binding", "conditions": "for ELISA Titer of serum sample: 1 μg/well coated", "procedure": "Standard ELISA methods were used in these experiments. Briefly, 96-well polystyrene plates were coated with 1 μg/well of peptide or peptomer. The peptide found 9/27 (33%); the peptomer found 26/27 (96%); 1/10 (10%) false positive with the peptomer."}, "[3]": {"molecular_target": "CD4 (Homo sapiens, UniProt P01730)", "experiment": "Binding of peptide monomer to CD4 in the presence of detergent"}, "[4]": {"test_system": "MN isolate of HIV1", "experiment": "In vitro neutralization assay with rabbit antisera", "format": "cell-based", "conditions": "rabbit antibodies, Freund's adjuvant, HIV-1 MN in vitro", "procedure": "HIV-1 MN isolate was neutralized at a dilution of 1:70. Neutralization assays were carried as described in Robert-Guroff, et al. in Techniques in HIV Research Aldovini and Walker eds. pp. 179-185 (Aldrich 1990).\ngp120 Reactivity was in the dot blot assay. Neutralization was with an in\nvitro neutralization assay using the MN isolate of HIV1."}, "[5]": {"test_system": "Rhesus monkeys", "experiment": "Immune response of Rhesus monkeys: ELISA titer against the peptomer", "format": "in vivo", "conditions": "for ELISA titer 0 weeks: before peptomer immunization", "procedure": "(§1) This experiment was done with Rhesus monkeys that had been primed with various attenuated poxvirus recombinant carrying HIV-1MN genes and boosted with envelope and gag proteins formulated in alum. Six monkeys were used for the studies. Two of the monkeys were immunized with peptomer(419-436) suspended in phosphate-buffered saline (PBS at pH 7.4 without adjuvant) and four were immunized with peptomer(419-436) in alum. Each animal was injected with a single 1 ml bolus containing 1 mg peptomer(419-436) in a subscapular location in order that the immunogen be administered in a lymph node-rich locus. Three weeks after the initial injection, the monkeys were injected again and the final evaluation was performed after an additional three weeks (a total of six weeks from the initial injection).\nThree weeks following the initial administration of the peptomer(419-436) an ELISA titer against the peptomer of 1:3,200 was detected for the monkeys immunized with peptomer in alum."}, "[6]": {"test_system": "HIV-1 (MN)", "experiment": "HIV-1 (MN) in vitro neutralization by sera of immunized Rhesus monkeys", "format": "cell-based", "conditions": "1 mg in PBS at 0 and 3 weeks, reciprocal serum dilution giving 40% neutralization", "procedure": "as §1\nThe neutralization titers are given as the reciprocal of the dilution of\nserum that gives a 40% neutralization of HIV1 (MN) infection in vitro. A\nnegative value means neutralization was not observed at the lowest serum\ndilution tested (1:25). The MN isolate was used because this was the\nstrain used to design the peptomer."}, "[7]": {"molecular_target": "T1, gp120 binding to CD4 (Homo sapiens, UniProt P01730)", "T1 construct": "recombinant soluble CD4 (Genentech); purchased Genentech", "experiment": "ELISA: inhibition of gp120 binding to CD4 by peptomer", "set-up": "species or system HIV-1", "conditions": "500 ng/well recombinant soluble gp120 coated, biotinylated CD4, peptomer prepared without lyophilization", "procedure": "C. Inhibition of gp120 binding to CD4 by peptomer(419-436). The ELISA procedure was the same as above except that 500 ng/well of recombinant soluble gp120 was used to coat each well instead of peptomer. Poly-scrambled peptomer is a peptomer that contains all the amino acids as in peptomer(419-436) in a scrambled order."}, "[8]": {"experiment": "Solubility of the peptomer", "format": "physicochemical", "procedure": "b) Polymerization of the peptide monomers to form peptomer (419-436) The peptide polymers were prepared by dissolving 5 mg of the N-bromoacetyl cysteine-containing peptides in 1.0 ml of deoxygenated 0.5M NaHCO3 or 0.1M NaHPO4, pH 7.0-7.5 buffer and stirring these solutions under N2 for 5-12 hours at 25° C. […] They are soluble in 10% acetic acid at less than about 1mg/ml.\nThe peptomer used in the experiments described in this Example was prepared without a lyophilization step."}, "[9]": {"molecular_target": "recombinant soluble gp120 (Human immunodeficiency virus type 1 group M subtype B, UniProt P05877)", "conditions": "rabbit antibodies, dot blot assay", "quoted_text": "The dot blot assays were carried as follows. Peptomers in H2 O were spotted onto nitrocellulose paper. The nitrocellulose was then blocked with 3% bovine serum albumin in tris-buffered saline (TBS) pH 7.4 for 1 hour, then treated with 1 μg/ml biotinylated rsCD4 (Genentech, South San Francisco, Calif.) for 3 hours in a buffer containing TBS and 0.1% Tween 20. The nitrocellulose was then treated with a 1:750 dilution of streptavidin-horseradish peroxidase conjugate and developed."}, "[10]": {"test_system": "binding of biotinylated CD4 to peptomer(419-436)", "conditions": "10 μg/200 μl peptomer coated; 1 μg/well biotinylated CD4"}, "[11]": {"conditions": "diagnosis Hodgkins / lymphoma (control)"}, "[12]": {"conditions": "diagnosis Kidney Graft (control)"}},
  "note": "“And” between values parts separate entries of the source, which are not always exact repeats. Equal entries are not always repeated. Where two headings read alike, the source gives them in different places. Where no end group is shown, it is not given here.",
  "data": [
    {"substance": "KIKQIINMWQEVGKAMYA [Peptide 419-436]", "values": [
      {"measurement": "α-helix by circular dichroism", "setting": "[1]; PBS with 0.03% Brij 35, shoulder at 220 λ", "result": "presence of an α-helix"},
      {"measurement": "helix content", "setting": "[1]", "result": "8±7", "unit": "%"},
      {"measurement": "ELISA Titer of serum sample", "setting": "[2]; [11]", "result": 0},
      {"measurement": "ELISA Titer of serum sample", "setting": "[2]; [12]", "result": 0},
      {"measurement": "ELISA Titer of serum sample", "setting": "[2]; diagnosis NORMAL (control)", "result": 0},
      {"measurement": "ELISA Titer of serum sample", "setting": "[2]; diagnosis uveitis (control)", "result": 0},
      {"measurement": "HIV-1(+) serum samples found", "setting": "[2]; of 27 HIV+/AIDS sera", "result": 33, "unit": "%"},
      {"measurement": "HIV-1(+) serum samples found", "setting": "[2]; positive of 27 HIV+/AIDS sera", "result": "9/27"},
      {"measurement": "ability of the peptide monomer to bind CD4", "setting": "[3]", "result": "enhanced ability"}
    ]},
    {"substance": "Peptomer (419-436): polymer of N-bromoacetyl cysteine-containing peptide monomers KIKQIINMWQEVGKAMYA, residues 419 to 436 of HIV-1 gp120 (also: polymerized via N-bromoacetyl cysteine, site not given here)", "values": [
      {"measurement": "Neutralization", "setting": "[4]", "result": "None"},
      {"measurement": "Neutralization", "setting": "[4]; listed as peptomer (419-436)", "result": "not able to recognize gp120 or to neutralize HIV-1 infection in vitro"},
      {"measurement": "ELISA titer 0 weeks", "setting": "[5]; Rhesus monkeys, PBS without adjuvant", "result": 0},
      {"measurement": "ELISA titer 0 weeks", "setting": "[5]; Rhesus monkeys, alum group", "result": 0},
      {"measurement": "ELISA titer against the peptomer, three weeks after initial administration", "setting": "[5]; Rhesus monkeys, peptomer in PBS", "result": "No titer was detected"},
      {"measurement": "Immunogenicity in Rhesus monkeys", "setting": "[5]; monkeys previously immunized with various HIV-related immunogens including gp160/120", "result": "immunogenic"},
      {"measurement": "HIV-1 (MN) NEUTRALIZATION 6 weeks", "setting": "[6]", "result": "40 and 50"},
      {"measurement": "helix content", "setting": "[1]", "result": "31±1", "unit": "%"},
      {"measurement": "ELISA Titer of serum sample", "setting": "[2]; [11]", "result": 0},
      {"measurement": "ELISA Titer of serum sample", "setting": "[2]; [12]", "result": 0},
      {"measurement": "ELISA Titer of serum sample", "setting": "[2]; diagnosis NORMAL (control)", "result": 0},
      {"measurement": "false positive", "setting": "[2]; of 10 non-HIV sera", "result": 10, "unit": "%"},
      {"measurement": "HIV-1(+) serum samples found", "setting": "[2]; of 27 HIV+/AIDS sera", "result": 96, "unit": "%"},
      {"measurement": "false positive", "setting": "[2]; positive of 10 non-HIV sera", "result": "1/10"},
      {"measurement": "HIV-1(+) serum samples found", "setting": "[2]; positive of 27 HIV+/AIDS sera", "result": "26/27"},
      {"measurement": "inhibition of gp120 binding to CD4", "setting": "[7]; listed as peptomer", "result": "enhanced ability to block binding"},
      {"measurement": "inhibition of gp120 binding to CD4", "setting": "[7]; listed as peptomer(419-436)", "result": "inhibition"},
      {"measurement": "solubility in 10% acetic acid", "setting": "[8]; 10% acetic acid", "result": "less than 1 mg/ml"},
      {"measurement": "solubility in buffered saline solutions", "setting": "[8]; buffered saline solutions", "result": "not soluble"},
      {"measurement": "solubility in aqueous solutions", "setting": "[8]; peptomer prepared without a lyophilization step", "result": "increased solubility"},
      {"measurement": "solubility in water", "setting": "[8]; water", "result": "only partially soluble"},
      {"measurement": "gp120 Reactivity", "setting": "[9]; Freund's adjuvant", "result": 0},
      {"measurement": "gp120 Reactivity", "setting": "[9]; Freund's adjuvant, listed as peptomer (419-436)", "result": "not able to recognize gp120"},
      {"measurement": "gp120 Reactivity", "setting": "[9]; Ribi's adjuvant", "result": "reacted well"}
    ]},
    {"substance": "recombinant soluble gp120: recombinant soluble HIV-1 envelope glycoprotein gp120", "values": [
      {"measurement": "inhibition of biotinylated CD4 binding to peptomer(419-436)", "setting": "[10]", "result": "inhibition"}
    ]}
  ]
}
